Source: ChEMBL document CHEMBL5584240, “Evaluation of potency and metabolic stability of diphyllin-derived Vacuolar-ATPase inhibitors” (Eur J Med Chem, 2024)
Active and inactive are the calls of the source. The rule behind the calls is not given here.

Assays:
[1] = Oral bioavailability in ICR mouse at 75 mg/kg by LC-MS/MS analysis; type: ADME, organism-based; details: in vivo
HEK293 = test: Cytotoxicity against HEK293 cells incubated for 72 hrs by MTT assay; type: toxicity, cell-based; details: human, hek293, 72 h
A549 = test: Induction of phospholipidosis in NBD-PE-treated human A549 cells at 10 uM incubated for 24 hrs by imaging based analysis; type: functional, cell-based
Ebolavirus = test: Antiviral activity against recombinant Ebola virus Mayinga expressing GFP infected in human HeLa cells with ATP6V0a2 KO assessed as reduction in viral entry into cells pretreated for 1 hr followed by viral infection measured after 24 to 48 hrs by imaging analysis; type: functional, organism-based; details: Orthoebolavirus

COc1cc2c(O[C@@H]3O[C@H](CO)[C@@H]4OC(C)(C)O[C@@H]4[C@H]3O)c3c(c(-c4ccc5c(c4)OCO5)c2cc1OC)C(=O)OC3
bioavailability [1]: 2.5%

COc1cc2c(O)c3c(c(-c4ccc5c(c4)OCO5)c2cc1OC)C(=O)OC3 [DIPHYLLIN]
CC50 (HEK293): > 80000 nM | Activity (A549): inactive | EC50 (Ebolavirus): 1090 nM
